Common to all, as to format: biochemical
Assay [1] deals with succinate cytochrome c reductase (SDH+CIII) (Homo sapiens, UniProt O14521+P21912+Q99643). Nature of the assay: Malonate-sensitive succinate cytochrome c reductase (SCCR) activity, freeze-thawed HEK cells. Also on record: the pellets were permeabilized by two freeze-thaw cycles before enzyme assays; endogenous in cells; host or cells: HEK293, freeze-thawed cell pellets. The conditions noted are these: no exogenous quinone. How it is done: (§1) The cells were grown in T75 flasks using 10 ml Dulbecco’s modified Eagle's minimal essential medium (DMEM) either containing 1 or 4.5 g/l glucose, 4 mM glutamine (glutamax; Gibco Thermo Fisher Scientific, MA), 2 mM pyruvate and 200 μM uridine (permissive medium, thereafter referred as GlucoMax) or lacking glucose, pyruvate and uridine but containing 4 mM glutamine (nonpermissive medium, thereafter referred as MitoMax; S1 Table). All media were supplemented with 10% fetal calf serum and 100 U/mL each penicillin and streptomycin. HEK293 human embryonic kidney cells were cultured in DMEM containing 4.5 g/L glucose, 4 mM glutamine, 10% fetal calf serum, 200 μM uridine, 2 mM pyruvate, and 100 U/mL each penicillin and streptomycin [9]. Cell pellets (1,500 g for 5 min) were kept frozen (-80°C), and for biochemical studies, the pellets were permeabilized by two freeze-thaw cycles before enzyme assays.
(§2) RC enzyme activities were spectrophotometrically measured using a pseudo-double-wavelength spectrophotometer (Cary 60, Agilent). Malonate-sensitive succinate quinone dichlorophenolindophenol (DCPIP) reductase (SQDR), as an indicator of the activity of the isolated SDH enzyme (isolated CII), and glycerol-3-phosphate quinone DCPIP reductase (GQDR), as a measure of the activity of the isolated glycerol-3-phosphate dehydrogenase (G3PDH), were assayed as previously described. To study the effect of SDHIs on the RC, we had to take into consideration the fact that these inhibitors act through binding to quinone-binding sites in the RC. Accordingly, we observed that the extent of the inhibitory effects of these substances varies with the addition of exogenous quinones (Fig 1). […] With this aim, we measured the malonate-sensitive succinate cytochrome c reductase (SDH+CIII), glycerol-3-phosphate cytochrome c reductase (G3PDH+CIII) and antimycin-sensitive quinol cytochrome c reductase (CIII) as previously described.
(§3) The effects of eight different SDHIs (up to 500 μM; S2 Fig) were determined on four different biological materials. Because IC50 are known to be affected by the actual absolute activity of the tested enzyme, these IC50 were quantified using similar levels of SDH enzyme activity during the assay. IC50 values were determined using the AAT Bioquest IC50 calculator tool (https://www.aatbio.com/tools/ic50-calculator).

In assay [2] the target is T1, quinol cytochrome c reductase (CIII) (Botrytis cinerea, UniProt Q18ND9).
T1 sequence (Q18ND9 1-391): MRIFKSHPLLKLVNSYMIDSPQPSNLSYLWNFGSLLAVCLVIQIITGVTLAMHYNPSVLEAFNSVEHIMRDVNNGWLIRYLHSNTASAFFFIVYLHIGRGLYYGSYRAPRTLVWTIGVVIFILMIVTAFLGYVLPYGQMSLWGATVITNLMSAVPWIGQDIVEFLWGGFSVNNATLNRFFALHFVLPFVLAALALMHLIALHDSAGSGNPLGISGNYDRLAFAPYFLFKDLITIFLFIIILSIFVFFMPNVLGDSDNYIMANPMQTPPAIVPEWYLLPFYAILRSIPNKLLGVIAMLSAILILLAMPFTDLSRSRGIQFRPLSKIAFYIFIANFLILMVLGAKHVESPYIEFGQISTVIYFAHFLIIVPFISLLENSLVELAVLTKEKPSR
Nature of the assay: QCCR activity, Botrytis cinerea mitochondria. How it is done: The mixed population of B. cinerea fungi used in this study was kindly provided by Dr. Joelle Dupont (Museum National d’Histoire Naturelle, Paris, France). Conidia from Botrytis cinerea were obtained from 15–30 d cultures grown on malt medium agar plates. Mycelial colonies were prepared by seeding conidia from 10 colonies in liquid medium (10 g of glucose, 2 g of KH2PO4, 0.5 g of MgSO47H2O, 1 g of (NH4)2SO4, 2 g of yeast extract and deionized water up to 1 l, pH 6.2). Incubation was performed at 23°C until hyphae totally covered the surface of the bottle. The hyphae (9-cm-diameter disks) were harvested, washed twice with refrigerated distilled water and finally with mitochondria extraction medium containing 20 mM Tris (pH 7.2), 0.25 M sucrose, 40 mM KCl, 2 mM EGTA, 1 mg/ml BSA, and no cysteine. The hyphae were suspended in 150 ml of extraction medium, cut in small pieces (1 cm^2) and then disrupted at high speed for 1×2 sec and at low speed for 2×3 sec using a MultiMoulinex mixer (Moulinex, France). The suspension of disrupted hyphae was then filtered through two layers of nylon cloth (clearance 150 μm). The cloth was washed with 50 ml of extraction medium. After low-speed centrifugation (700 g for 15 min), the mitochondria were collected at 10,000 g for 20 min. The pellet was suspended in 250 μl of extraction medium, aliquoted (± 30 μl) and kept frozen at -80°C.
as §2, with “described.” for “described. To study the effect of SDHIs on the RC, we had to take into consideration the fact that these inhibitors act through binding to quinone-binding sites in the RC. Accordingly, we observed that the extent of the inhibitory effects of these substances varies with the addition of exogenous quinones (Fig 1).”
as §3

The target in assay [3] is succinate cytochrome c reductase (SDH+CIII). Nature of the assay: SCCR activity, earthworm homogenate. The conditions noted are these: Lumbricus terrestris homogenate. How it is done: L. terrestris individuals (n = 5) were collected manually in a household compost in Epernon (France 28230) and identified by the person (Paule Bénit) in charge of this compost. Before use, the worms were washed 5 times with 1× phosphate-buffered saline. A fresh homogenate was prepared from the segments located between the prostomium and clitellum of the 5 individuals. Tissues were placed in 500 μl of an ice-cold medium consisting of 20 mM Tris (pH 7.2), 0.25 M sucrose, 40 mM KCl, 2 mM EGTA, and 1 mg/ml BSA and homogenized using a 1-ml glass-glass Potter-Elvehjem homogenizer. Low-speed centrifugation at 1,500 g for 5 min allowed heavy debris to be discarded. The supernatant was distributed as 50-μl aliquots and kept frozen at -80°C.
as §2, with “described.” for “described. To study the effect of SDHIs on the RC, we had to take into consideration the fact that these inhibitors act through binding to quinone-binding sites in the RC. Accordingly, we observed that the extent of the inhibitory effects of these substances varies with the addition of exogenous quinones (Fig 1).”
as §3

Assay [4] has as its target T2, quinol cytochrome c reductase (CIII) (Homo sapiens, UniProt P00156).
T2 construct: the pellets were permeabilized by two freeze-thaw cycles before enzyme assays; endogenous in cells; host or cells: HEK293, freeze-thawed cell pellets
Nature of the assay: Antimycin-sensitive quinol cytochrome c reductase (QCCR) activity, freeze-thawed HEK cells. How it is done: as §1, §2, §3

Assay [5] has as its target T3, glycerol-3-phosphate cytochrome c reductase (G3PDH+CIII) (Homo sapiens, UniProt P00156).
T3 construct: the pellets were permeabilized by two freeze-thaw cycles before enzyme assays; endogenous in cells; host or cells: HEK293, freeze-thawed cell pellets
Nature of the assay: Glycerol-3-phosphate cytochrome c reductase (GCCR) activity, freeze-thawed HEK cells. How it is done: as §1, §2, §3

Setting [6] is: CIII values only indicative, read-out: IC50 QCCR.
[7] abbreviates: Homo sapiens, freeze-thawed HEK cells, CIII values only indicative (reduced quinone added), read-out: IC50 QCCR.
Setting [8] is: Homo sapiens, freeze-thawed HEK cells, read-out: IC50 GCCR.
Where [9] appears, read: read-out: IC50 QCCR, CIII values only indicative.

The structures appear in SMILES notation. Like-named read-outs stand apart in the source and are kept apart here.

succinate cytochrome c reductase (SDH+CIII) (Homo sapiens, UniProt O14521+P21912+Q99643), sequence (P21912 29-280): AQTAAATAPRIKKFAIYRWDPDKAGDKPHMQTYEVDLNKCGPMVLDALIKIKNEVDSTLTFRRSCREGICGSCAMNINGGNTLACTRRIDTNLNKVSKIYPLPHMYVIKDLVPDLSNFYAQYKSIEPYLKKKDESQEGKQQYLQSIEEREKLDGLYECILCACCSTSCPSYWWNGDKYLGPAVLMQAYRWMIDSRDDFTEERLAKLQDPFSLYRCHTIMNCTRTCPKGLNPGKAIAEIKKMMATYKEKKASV
succinate cytochrome c reductase (SDH+CIII) (Homo sapiens, UniProt O14521+P21912+Q99643), sequence (Q99643 30-169): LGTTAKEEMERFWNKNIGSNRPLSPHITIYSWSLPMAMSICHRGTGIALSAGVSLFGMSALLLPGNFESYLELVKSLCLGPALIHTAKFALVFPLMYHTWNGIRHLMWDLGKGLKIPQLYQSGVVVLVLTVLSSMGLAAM
succinate cytochrome c reductase (SDH+CIII) (Homo sapiens, UniProt O14521+P21912+Q99643), sequence (O14521 57-159): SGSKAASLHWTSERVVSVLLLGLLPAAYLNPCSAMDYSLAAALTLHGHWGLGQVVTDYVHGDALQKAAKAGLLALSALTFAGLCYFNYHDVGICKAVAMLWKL
succinate cytochrome c reductase (SDH+CIII) (Homo sapiens, UniProt O14521+P21912+Q99643), sequence (P31040 43-664 partner): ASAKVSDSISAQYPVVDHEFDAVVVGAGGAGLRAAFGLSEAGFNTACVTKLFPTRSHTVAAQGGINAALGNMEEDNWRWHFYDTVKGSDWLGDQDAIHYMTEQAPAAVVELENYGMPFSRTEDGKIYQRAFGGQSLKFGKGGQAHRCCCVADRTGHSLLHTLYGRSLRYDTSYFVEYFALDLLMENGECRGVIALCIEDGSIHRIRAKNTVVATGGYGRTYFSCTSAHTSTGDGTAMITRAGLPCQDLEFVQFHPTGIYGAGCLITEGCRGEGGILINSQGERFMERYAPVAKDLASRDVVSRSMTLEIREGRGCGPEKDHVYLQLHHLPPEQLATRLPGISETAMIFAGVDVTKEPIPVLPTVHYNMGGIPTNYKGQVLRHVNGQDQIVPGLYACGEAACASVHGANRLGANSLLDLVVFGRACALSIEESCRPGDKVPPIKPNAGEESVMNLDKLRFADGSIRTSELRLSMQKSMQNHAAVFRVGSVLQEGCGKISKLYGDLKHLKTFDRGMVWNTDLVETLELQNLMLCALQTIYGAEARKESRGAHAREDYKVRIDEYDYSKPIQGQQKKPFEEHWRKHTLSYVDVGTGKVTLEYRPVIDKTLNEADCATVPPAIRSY

One may read the IC50 as the concentration that gives 50% inhibition. On to `Cn1cc(C(=O)Nc2ccccc2-c2cc(F)c(F)c(F)c2)c(C(F)F)n1` [Fluxapyroxad, fluxapyroxad], for which the IC50 in assay [1] (n ≥ 3, read-out: IC50 SCCR) was 2.1 µM; in assay [2] (setting [6]), 67 µM; in assay [3], 0.71 µM; in assay [4] (setting [7]) it was more than 500 µM; in assay [5] (setting [8]), more than 500 µM.
As to `Cc1nn(C)c(F)c1C(=O)Nc1ccccc1C(C)CC(C)C` (centres unmarked) [Penflufen, penflufen], the 50% inhibitory concentration (IC50) in assay [1] (n ≥ 3, listed as penflufen, read-out: IC50 SCCR) is not above 1 µM; in assay [1] (n ≥ 3, read-out: IC50 SCCR) it was 1.3 µM; in assay [2] (setting [6]), 433 µM; in assay [3] it was 1.13 µM; in assay [4] (setting [7]) it was more than 500 µM; in assay [5] (setting [8]), more than 500 µM.
In the case of `CC(C)CC(C)c1sccc1NC(=O)c1cn(C)nc1C(F)(F)F` (centres unmarked) [Penthiopyrad, penthiopyrad], the IC50 in assay [1] (IC50 SCCR, n ≥ 3) turned out to be 3.7 µM; in assay [2] (setting [9]), 105 µM; in assay [3] it was 0.7 µM; in assay [4] it was 349 µM; in assay [5], 211 µM.
`Cn1cc(C(=O)Nc2ccc(F)cc2-c2ccc(Cl)c(Cl)c2)c(C(F)F)n1` [Bixafen, bixafen]: the IC50 in assay [1] (n ≥ 3, listed as bixafen, read-out: IC50 SCCR) is not above 1 µM; in assay [1] (n ≥ 3, read-out: IC50 SCCR) it was 0.34 µM; in assay [2] (setting [6]), 22.2 µM; in assay [3] it was 6 µM; in assay [4] (setting [7]), 15.5 µM; in assay [5] (setting [8]), 21.1 µM.
Take `CC(C)Oc1cccc(NC(=O)c2ccccc2C(F)(F)F)c1` [Flutolanil, flutolanil]: the IC50 in assay [1] (n ≥ 3, read-out: IC50 SCCR) was 18.7 µM; in assay [2] (setting [9]), more than 500 µM; in assay [3], 0.36 µM; in assay [4] (setting [7]), more than 500 µM; in assay [5] (setting [8]), more than 500 µM.
As to `CC(C)C1C2CCC1c1c(NC(=O)c3cn(C)nc3C(F)F)cccc12` (centres unmarked) [Isopyrazam, isopyrazam], the IC50 is not above 1 µM in assay [1] (n ≥ 3, listed as isopyrazam, read-out: IC50 SCCR); 0.63 µM in assay [1] (n ≥ 3, read-out: IC50 SCCR); 14.2 µM in assay [2] (setting [6]); 0.46 µM in assay [3]; 125 µM in assay [4] (setting [7]); 51.3 µM in assay [5] (setting [8]).
For the molecule `O=C(Nc1ccccc1-c1ccc(Cl)cc1)c1cccnc1Cl` [Boscalid, boscalid], the IC50 in assay [1] (IC50 SCCR, n ≥ 3) is 4.8 µM; in assay [2] (setting [9]), more than 500 µM; in assay [3], 0.5 µM; in assay [4], more than 500 µM; in assay [5] it was more than 500 µM.

The values are drawn from PMC6837341, “Evolutionarily conserved susceptibility of the mitochondrial respiratory chain to SDHI pesticides and its consequence on the impact of SDHIs on human cultured cells” (PLoS ONE, 2019).
